Assay results: ChEMBL document CHEMBL1201862, “PubChem BioAssay data set” (2004)
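Grown in 96-well plates, cells were treated for 48 hours with each compound at five concentrations. Insufficient inhibition: endpoint recorded as highest concentration tested. GI50: concentration for 50% inhibition of growth.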 Activity calls are given as the source filed them. Rule as the data show it: active = GI50 up to about 1.1 µM and inactive = higher.

Assays:
Assay in all cases: DTP human tumour cell line panel, 48 h
[1] = system: MCF7
[2] = system: OVCAR-8
[3] = system: NCI-H23
[4] = system: SF-295
[5] = system: MOLT-4
[6] = system: OVCAR-3
[7] = system: SN12C
[8] = system: MDA-N
[9] = system: HL-60
[10] = system: NCI-H460
[11] = system: SF-539
[12] = system: HCT-15
[13] = system: Hs-578T
[14] = system: EKVX
[15] = system: HCT-116
[16] = system: Malme-3M
[17] = system: UACC-257
[18] = system: HCC 2998
[19] = system: NCI-H522
[20] = system: NCI-H226

O=c1c(NO)c([N+](=O)[O-])cnn1-c1ccccc1
GI50 [1]: 2.55 µM (inactive)
GI50 [2]: 2.63 µM (inactive)
GI50 [3]: 6.55 µM (inactive)
GI50 [4]: 12.2 µM (inactive)
GI50 [5]: 2.39 µM (inactive)
GI50 [6]: 2.98 µM (inactive)
GI50 [7]: 3.08 µM (inactive)
GI50 [8]: 2.29 µM (inactive)
GI50 [9]: 0.789 µM (active)
GI50 [10]: 4.88 µM (inactive)
GI50 [11]: 15.2 µM (inactive)
GI50 [12]: 4.78 µM
GI50 [13]: < 0.01 µM (active)
GI50 [14]: 11.6 µM (inactive)
GI50 [15]: 2.62 µM (inactive)
GI50 [16]: 4.6 µM (inactive)
GI50 [17]: 6.37 µM (inactive)
GI50 [18]: 5.47 µM (inactive)
GI50 [19]: 1.97 µM (inactive)
GI50 [20]: 7.87 µM (inactive)

COc1ccc(NC(=O)CC(=O)NNC(Sc2ccccc2)c2cc(/N=N/c3ccc(Br)cc3)ccc2O)cc1 (stereo not given)
GI50 [1]: > 10 µM (inactive)
GI50 [2]: > 10 µM (inactive)
GI50 [3]: > 10 µM (inactive)
GI50 [4]: > 10 µM (inactive)
GI50 [5]: 3.86 µM (inactive)
GI50 [6]: 2.21 µM (inactive)
GI50 [7]: 7.52 µM (inactive)
GI50 [8]: > 10 µM (inactive)
GI50 [9]: 3.61 µM (inactive)
GI50 [10]: > 10 µM (inactive)
GI50 [11]: > 10 µM (inactive)
GI50 [12]: > 10 µM
GI50 [13]: > 10 µM (inactive)
GI50 [14]: > 10 µM (inactive)
GI50 [15]: 4.81 µM (inactive)
GI50 [16]: > 10 µM (inactive)
GI50 [17]: > 10 µM (inactive)
GI50 [18]: > 10 µM (inactive)
GI50 [19]: > 10 µM (inactive)
GI50 [20]: 2.74 µM (inactive)

Cc1cc(C)c2c(=N)c3ccccc3n(CCCCCCO)c2n1
GI50 [1]: 2.11 µM (inactive)
GI50 [2]: 1.17 µM (inactive)
GI50 [3]: 2.15 µM (inactive)
GI50 [4]: 3.36 µM (inactive)
GI50 [5]: 3.78 µM (inactive)
GI50 [6]: 6.55 µM (inactive)
GI50 [7]: 1.95 µM (inactive)
GI50 [8]: 2.52 µM (inactive)
GI50 [9]: 2.9 µM (inactive)
GI50 [10]: 1.69 µM (inactive)
GI50 [11]: 2.33 µM (inactive)
GI50 [12]: 2.88 µM
GI50 [13]: 3.03 µM (inactive)
GI50 [14]: 2.82 µM (inactive)
GI50 [15]: 3.11 µM (inactive)
GI50 [16]: 2.63 µM (inactive)
GI50 [17]: 4.75 µM (inactive)
GI50 [18]: 2.81 µM (inactive)
GI50 [19]: 1.44 µM (inactive)
GI50 [20]: 3.87 µM (inactive)

N=C(N)Nc1ccc(-c2ccc(NC(=N)N)cc2)cc1
GI50 [1]: 39.2 µM (inactive)
GI50 [2]: 43.8 µM (inactive)
GI50 [3]: 35.6 µM (inactive)
GI50 [4]: 17.8 µM (inactive)
GI50 [5]: > 100 µM (inactive)
GI50 [6]: 22 µM (inactive)
GI50 [7]: 12.4 µM (inactive)
GI50 [8]: 40.7 µM (inactive)
GI50 [9]: 40.9 µM (inactive)
GI50 [10]: 17.1 µM (inactive)
GI50 [11]: 20.9 µM (inactive)
GI50 [12]: 49.5 µM
GI50 [13]: 19.4 µM (inactive)
GI50 [14]: 40.3 µM (inactive)
GI50 [15]: 28.8 µM (inactive)
GI50 [16]: 19 µM (inactive)
GI50 [17]: > 73.5 µM (inactive)
GI50 [18]: 63 µM (inactive)
GI50 [19]: 32.2 µM (inactive)
GI50 [20]: 15.7 µM (inactive)

O/N=C1\C/C(=N\O)c2c(Br)sc(Br)c21
GI50 [1]: 38.3 µM (inactive)
GI50 [2]: 19.2 µM (inactive)
GI50 [3]: 20.4 µM (inactive)
GI50 [4]: > 100 µM (inactive)
GI50 [5]: 29.2 µM (inactive)
GI50 [6]: 30.6 µM (inactive)
GI50 [7]: > 100 µM (inactive)
GI50 [8]: 78.5 µM (inactive)
GI50 [9]: 27.4 µM (inactive)
GI50 [10]: > 100 µM (inactive)
GI50 [11]: 38.2 µM (inactive)
GI50 [12]: 17.3 µM
GI50 [13]: 0.216 µM (active)
GI50 [14]: 16.9 µM (inactive)
GI50 [15]: 37.4 µM (inactive)
GI50 [16]: > 100 µM (inactive)
GI50 [17]: > 100 µM (inactive)
GI50 [18]: 23.7 µM (inactive)
GI50 [19]: 17.7 µM (inactive)
GI50 [20]: 51.8 µM (inactive)
